Laboratory results from paper PMC11434749, “In Vitro Interaction of Binuclear Copper Complexes with Liver Drug-Metabolizing Cytochromes P450” (Pharmaceuticals, 2024).

Assays:
CYP2B6 = target: T1, CYP2B6 (Homo sapiens, UniProt P20813); assay: Inhibition of CYP2B6 activity (EFC O-deethylation) in human liver microsomes; assay type: in vitro ADME; settings: HLM, EFC 15 µmol·L^−1, preincubation 30 min at 37 °C, Mean ± S.D.
T1 construct: Pooled human liver microsomes were obtained from Biopredic (Rennes, France); tissue Biopredic (Rennes, France); host or cells: pooled human liver microsomes, seventeen donors
T1 sequence (P20813 1-491): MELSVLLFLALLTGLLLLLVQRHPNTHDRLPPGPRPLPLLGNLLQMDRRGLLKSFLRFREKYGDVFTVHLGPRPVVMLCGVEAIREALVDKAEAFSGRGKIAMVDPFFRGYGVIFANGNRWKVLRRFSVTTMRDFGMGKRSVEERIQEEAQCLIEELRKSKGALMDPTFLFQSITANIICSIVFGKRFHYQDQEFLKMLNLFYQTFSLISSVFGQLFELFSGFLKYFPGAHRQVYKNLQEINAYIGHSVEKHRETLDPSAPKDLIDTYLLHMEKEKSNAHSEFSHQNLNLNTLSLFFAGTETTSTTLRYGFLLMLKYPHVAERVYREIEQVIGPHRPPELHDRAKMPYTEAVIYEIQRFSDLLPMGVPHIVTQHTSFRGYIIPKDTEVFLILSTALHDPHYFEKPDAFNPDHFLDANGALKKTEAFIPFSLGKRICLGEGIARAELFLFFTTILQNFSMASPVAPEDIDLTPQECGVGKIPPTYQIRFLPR
Description: (§1) The following enzyme assays were performed to determine the activities of specific CYP enzymes: CYP1A2, 7-ethoxyresorufin O-deethylation; CYP2A6, coumarin 7-hydroxylation; CYP2B6, 7-ethoxy-4-(trifluoromethyl) coumarin (EFC) O-deethylation; CYP2C8 paclitaxel 6α-hydroxylation; CYP2C9, diclofenac 4′-hydroxylation; CYP2C19, diazepam N-desmethylation; CYP2D6, bufuralol 1′-hydroxylation; CYP2E1, chlorzoxazone 6-hydroxylation; and CYP3A4/5, testosterone 6β-hydroxylation. […]
(§2) For the determination of metabolites formed from specific substrates, a Prominence LC-20A HPLC system (Shimadzu, Kyoto, Japan) with UV detection or fluorescence detection was used (see Table 2). […]
(§3) Initially, for each enzyme assay, a preliminary experiment was carried out to determine Km and Vmax to obtain the appropriate concentration of the specific substrates for the inhibition experiments (the substrate concentration was chosen in the range corresponding to the value of the Km for each particular reaction). Data were analyzed using the Sigma plot software, as mentioned above, with spectral studies. […] In all cases, the inhibition of individual CYP activities was evaluated by plotting the respective remaining activity against the inhibitor concentration.

CYP3A4 = assay: Inhibition of CYP3A4 activity (testosterone 6β-hydroxylation) in human liver microsomes; assay type: in vitro ADME; settings: HLM, testosterone 100 µmol·L^−1, preincubation 30 min at 37 °C, Mean ± S.D.
Description: as §1, §2, §3

S. aureus = test system: S. aureus; design: method as in doi:10.1016/j.ica.2022.121273; settings: Gram-positive; cited from earlier work
E. coli = test system: E. coli; design: method as in doi:10.1016/j.ica.2022.121273; settings: Gram-negative; cited from earlier work
P. aeruginosa = test system: P. aeruginosa; design: method as in doi:10.1016/j.ica.2022.121273; settings: Gram-negative; cited from earlier work
CYP2C8 = target: T2, CYP2C8 (Homo sapiens, UniProt P10632); assay: Inhibition of CYP2C8 activity (paclitaxel 6α-hydroxylation) in human liver microsomes; assay type: in vitro ADME; settings: HLM, paclitaxel 50 µmol·L^−1, preincubation 30 min at 37 °C, Mean ± S.D.
T2 construct: Pooled human liver microsomes were obtained from Biopredic (Rennes, France); tissue Biopredic (Rennes, France); host or cells: pooled human liver microsomes, seventeen donors
T2 sequence (P10632 1-490): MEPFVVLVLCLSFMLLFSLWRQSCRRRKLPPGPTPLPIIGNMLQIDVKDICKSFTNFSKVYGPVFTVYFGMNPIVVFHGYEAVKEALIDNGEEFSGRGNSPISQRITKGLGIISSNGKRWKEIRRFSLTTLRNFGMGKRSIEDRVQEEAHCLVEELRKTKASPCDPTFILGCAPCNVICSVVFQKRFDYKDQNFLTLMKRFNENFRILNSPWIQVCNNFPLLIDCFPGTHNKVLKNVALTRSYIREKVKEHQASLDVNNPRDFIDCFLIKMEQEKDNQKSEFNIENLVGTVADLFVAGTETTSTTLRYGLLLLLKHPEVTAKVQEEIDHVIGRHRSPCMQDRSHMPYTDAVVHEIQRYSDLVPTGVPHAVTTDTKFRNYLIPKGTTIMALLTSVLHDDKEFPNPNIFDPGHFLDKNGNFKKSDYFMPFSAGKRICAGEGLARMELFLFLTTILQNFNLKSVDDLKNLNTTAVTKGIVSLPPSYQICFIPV
Description: as §1, §2, §3

SMILES	IC50 (CYP2B6) [µM]	IC50 (CYP3A4) [µM]	MIC S. aureus (S. aureus) [µg/mL]	MIC E. coli (E. coli) [µg/mL]	MIC P. aeruginosa (P. aeruginosa) [µg/mL]	IC50 (CYP2C8) [µM]
CN(C)CCN(C)CCN(C)C.CN(C)CCN(C)CCN(C)C.O.O.O=C([O-])CCSSCCC(=O)[O-].[Cu+2].[Cu+2].[O-][Cl+3]([O-])([O-])[O-].[O-][Cl+3]([O-])([O-])[O-] [Complex No. 6, [Cu2(μ-dtdp)(pmdien)2(H2O)2](ClO4)2]	13.3 ± 0.54	3.62 ± 0.27	8.44	16.88	1.05	3.4 ± 0.1
CN(C)CCN(C)CCN(C)C.CN(C)CCN(C)CCN(C)C.O.O.O=C([O-])/C=C/C(=O)[O-].[Cu+2].[Cu+2].[O-][Cl+3]([O-])([O-])[O-].[O-][Cl+3]([O-])([O-])[O-] [Complex No. 5, [Cu2(μ-fu)(pmdien)2(H2O)2](ClO4)2]	24.8 ± 0.33	3.72 ± 0.23	1.05	8.44	2.11	3.66 ± 0.19
